In patent publication US5962314A, “Calcium receptor-active molecules” (priority 1997, dated 1999):
Entries after “also recorded” stand apart in the source; their conditions may differ. Where two headings read alike, the source gives them in different places.

Experiments:
[1] = molecular target: T1, parathyroid cell calcium receptor (Bos taurus, UniProt P35384); assay: cell-based; type: cell-based
T1 sequence (P35384 20-1085): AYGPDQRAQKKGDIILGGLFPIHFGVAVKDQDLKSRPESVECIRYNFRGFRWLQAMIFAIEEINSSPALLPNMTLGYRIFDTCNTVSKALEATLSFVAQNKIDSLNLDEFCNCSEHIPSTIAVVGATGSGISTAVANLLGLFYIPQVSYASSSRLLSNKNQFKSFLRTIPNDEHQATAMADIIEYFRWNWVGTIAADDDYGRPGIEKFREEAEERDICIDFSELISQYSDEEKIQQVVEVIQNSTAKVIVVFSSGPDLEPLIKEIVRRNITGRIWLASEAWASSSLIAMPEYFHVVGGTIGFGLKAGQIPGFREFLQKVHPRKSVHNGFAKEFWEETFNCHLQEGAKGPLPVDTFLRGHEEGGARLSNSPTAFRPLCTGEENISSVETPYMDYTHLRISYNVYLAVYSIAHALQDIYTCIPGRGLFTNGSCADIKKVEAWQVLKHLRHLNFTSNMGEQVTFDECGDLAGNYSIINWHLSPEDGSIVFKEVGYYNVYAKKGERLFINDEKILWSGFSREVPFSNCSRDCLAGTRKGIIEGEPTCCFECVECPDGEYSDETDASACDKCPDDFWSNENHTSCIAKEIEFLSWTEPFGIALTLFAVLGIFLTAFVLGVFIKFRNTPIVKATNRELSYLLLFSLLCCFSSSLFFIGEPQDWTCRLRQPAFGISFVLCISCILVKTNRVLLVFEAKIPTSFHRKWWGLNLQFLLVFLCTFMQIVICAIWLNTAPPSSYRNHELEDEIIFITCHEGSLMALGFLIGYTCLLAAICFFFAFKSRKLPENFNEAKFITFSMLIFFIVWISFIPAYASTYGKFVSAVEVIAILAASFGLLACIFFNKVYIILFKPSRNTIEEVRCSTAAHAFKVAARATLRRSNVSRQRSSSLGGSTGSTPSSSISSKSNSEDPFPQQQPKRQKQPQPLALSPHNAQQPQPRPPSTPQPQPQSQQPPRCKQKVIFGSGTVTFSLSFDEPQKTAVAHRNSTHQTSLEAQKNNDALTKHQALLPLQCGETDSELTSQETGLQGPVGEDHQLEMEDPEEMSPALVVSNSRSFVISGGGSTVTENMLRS
Protocol: For example,. bovine parathyroid cells loaded with fura-2 are initially suspended in buffer containing 0.5 mM CaCl2. A test substance is added to the cuvette in a small volume (5-15 μl) and changes in the fluorescence signal are measured. Cumulative increases in the concentration of the test substance are made in the cuvette until some predetermined concentration is achieved or no further changes in fluorescence are noted.
Human parathyroid glands, were obtained from patients undergoing surgical removal of parathyroid tissue for primary or uremic hyperparathyroidism (uremic HPT), and were treated similarly to bovine tissue.
The cells were then pelleted, resuspended in the same buffer, but lacking the ester, and incubated a further 15 minutes at 37° C. The cells were subsequently washed twice with PCB containing 0.5 mM CaCl2 and 0.5% BSA and maintained at room temperature (about 20° C.). Immediately before use, the cells were diluted five-fold with prewarmed 0.5 mM CaCl2 -PCB to obtain a final BSA concentration of 0.1%. The concentration of cells in the cuvette used for fluorescence recording was 1-2×10^6 /ml.
The fluorescence of indicator-loaded cells was measured at 37° C. in a spectrofluorimeter (Biomedical Instrumentation Group, University of Pennsylvania, Philadelphia, Pa.) equipped with a thermostated cuvette holder and magnetic stirrer using excitation and emission wavelengths of 340 and 510 nm, respectively. […] Leakage of dye is dependent on temperature and most occurs within the first 2 minutes after warming the cells in the cuvette. Dye leakage increases only very slowly thereafter. To correct the calibration for dye leakage, cells were placed in the cuvette and stirred at 37° C. for 2-3 minutes. The cell suspension was then removed, the cells pelleted, and the supernatant returned to a clean cuvette. […] This estimate was subtracted from the apparent Fmin.

cyclic AMP = type: cell-based, bovine
Protocol: Cells were incubated as above for PTH secretion studies and at the end of the incubation, a 0.15-ml sample was taken and transferred to 0.85 ml of hot (70° C.) water and heated at this temperature for 5-10 minutes. The tubes were subsequently frozen and thawed several times and the cellular debris sedimented by centrifugation. Portions of the supernatant were acetylated and cyclic AMP concentrations determined by radioimmunoassay.
Each value is the mean±SEM of three experiments.

[2] = molecular target: T2, human parathyroid cell calcium receptor (Homo sapiens, UniProt P41180); assay: Cl- current in Xenopus oocytes expressing human parathyroid cell calcium receptor; type: cell-based; conditions: for effect on Cl- current: 3 to 30 μM, 0.3 mM extracellular Ca2+
T2 construct: T7 cRNA injected into Xenopus oocytes
T2 sequence (P41180 with tags, fused parts or gaps INS536PLTFVLSVLQ/Q926R/E1011Q): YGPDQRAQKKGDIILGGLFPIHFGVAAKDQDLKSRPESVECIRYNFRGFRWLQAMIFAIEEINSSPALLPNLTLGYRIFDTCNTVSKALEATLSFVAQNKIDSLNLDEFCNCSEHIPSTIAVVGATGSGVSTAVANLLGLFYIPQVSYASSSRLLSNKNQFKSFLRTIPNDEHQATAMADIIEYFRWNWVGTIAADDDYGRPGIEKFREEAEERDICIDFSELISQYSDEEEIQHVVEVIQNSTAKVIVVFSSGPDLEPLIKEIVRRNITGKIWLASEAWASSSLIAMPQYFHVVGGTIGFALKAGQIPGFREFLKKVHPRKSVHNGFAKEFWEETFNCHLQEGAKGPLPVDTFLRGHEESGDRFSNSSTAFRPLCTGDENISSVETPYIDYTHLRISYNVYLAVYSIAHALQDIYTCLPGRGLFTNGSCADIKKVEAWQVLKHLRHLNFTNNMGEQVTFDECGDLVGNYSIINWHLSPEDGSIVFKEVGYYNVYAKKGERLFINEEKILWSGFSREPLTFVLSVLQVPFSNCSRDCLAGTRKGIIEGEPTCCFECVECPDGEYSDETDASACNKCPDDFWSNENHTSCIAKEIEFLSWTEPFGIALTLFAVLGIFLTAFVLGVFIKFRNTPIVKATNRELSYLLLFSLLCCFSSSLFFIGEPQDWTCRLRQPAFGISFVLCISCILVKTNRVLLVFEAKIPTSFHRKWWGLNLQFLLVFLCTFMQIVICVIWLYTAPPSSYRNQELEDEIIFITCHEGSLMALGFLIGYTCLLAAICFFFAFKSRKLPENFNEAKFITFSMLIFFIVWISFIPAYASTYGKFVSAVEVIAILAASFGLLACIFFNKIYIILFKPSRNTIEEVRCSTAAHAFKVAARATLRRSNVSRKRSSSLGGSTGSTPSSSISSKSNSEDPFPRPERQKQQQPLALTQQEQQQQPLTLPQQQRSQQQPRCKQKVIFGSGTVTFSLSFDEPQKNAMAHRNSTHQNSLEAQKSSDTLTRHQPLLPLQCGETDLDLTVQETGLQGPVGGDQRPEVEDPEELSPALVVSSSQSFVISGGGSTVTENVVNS
Protocol: Representative cDNA inserts for both size classes were subcloned into the plasmid vector pBluescript SK. Linearization followed by in vitro transcription using T7 RNA polymerase produced cRNA transcripts. The cRNA transcripts were injected into Xenopus oocytes (150 ng/μl RNA; 50 nl/oocyte) for functional analysis. Following incubation periods of 2-4 days, the oocytes were assayed for the presence of functional calcium receptors. Both clone types gave rise to functional calcium receptors as assessed by the stimulation of calcium-activated chloride currents upon addition of appropriate calcium receptor agonists. […] Thus, both clones encode a functional, human parathyroid cell calcium receptor.
Xenopus oocytes were injected with pHuPCaR 5.2, the 5.2 Kb cDNA encoding a parathyroid cell calcium receptor derived from a human parathyroid cell adenoma. (See Example 27.) After two to three days, Cl^- currents were measured in the oocytes using a two-electrode voltage clamp.

[3] = test system: serum parathyroid hormone; assay: serum PTH in a human; type: in vivo; conditions: single oral doses
From the text: A range of single oral doses was used to assess safety, tolerance, and changes in primary hyperparathyroidism markers (e.g., plasma concentrations of parathyroid hormone and ionized serum calcium) and of serum calcitonin.

PTH = PTH levels in rats; type: in vivo, rat; conditions: NPS R-568 oral, rats
From the text: The fall in blood Ca^2+ at this time was paralleled by a proportional fall in the levels of blood total calcium.

Structure (SMILES)	effect on [Ca2+]i [1]	effect on [Ca2+]i ([1]; 10 μM, Ca2+-free)	effect on [Ca2+]i ([1]; 100 μM, Ca2+-free)	effect on extracellular Ca2+-evoked increases in [Ca2+]i ([1]; neomycin B 30 μM / maximally effective concentration)	effect on intracellular Ca2+ ([1]; neomycin B 30 μM, protamine 1 μg/ml)	effect on isoproterenol-induced increases in cyclic AMP (cyclic AMP)	effect on Cl- current [2]	response in absence of extracellular Ca2+ [2]	activation of oocyte-expressed receptor [2]	effect on extracellular Ca2+ concentration-response curve [2]	effect on plasma PTH in human [3]	effect on response to extracellular Ca2+ [1]	effect on [Ca2+]i in absence of extracellular Ca2+ ([1]; Ca2+-free buffer)	effect on PTH, oral (PTH)
NC[C@@H]1O[C@H](O[C@H]2[C@@H](O)[C@H](O[C@@H]3[C@@H](O)[C@H](N)C[C@H](N)[C@H]3O[C@H]3O[C@H](CN)[C@@H](O)[C@H](O)[C@H]3N)O[C@@H]2CO)[C@H](N)[C@@H](O)[C@@H]1O [Neomycin]	evoked rapid and transient increases in [Ca^2+ ]i	did not by itself cause an increase in [Ca^2+ ]i	evoked a rapid and transient increase in [Ca^2+ ]i	blocks transient, but does not block steady-state increases in [Ca^2+ ]i; also recorded: blocked transient, but not steady-state increases in [Ca^2+ ]i	mobilization of intracellular Ca^2+	depressed isoproterenol-induced increases in cyclic AMP	–	–	–	–	–	–	–	–
NCCCNCCCCNCCCNCCCNCCCNC(=O)Cc1c[nH]c2ccccc12 [NPS 019]	–	–	–	–	–	–	evoked increases in the Cl^-	persisted	–	–	–	–	–	–
COc1cccc([C@@H](C)NCCCc2ccccc2Cl)c1 [NPS R-568, (R)-(+)-N-[3-(2-chlorophenyl)propyl]-α-methyl-3-methoxybenzylamine]	evokes increases in [Ca^2+ ]i in bovine parathyroid cells in a stereospecific manner	–	–	–	–	–	evoked increases in the Cl^-	abolished	activated the oocyte-expressed receptor at about the same concentrations	shifted the concentration-response curve to the left	transient dose-dependent decrease in plasma PTH concentration	shifts the concentration-response curve for extracellular Ca^2+; also recorded: shift to the left in the concentration-response curve for extracellular Ca^2+	fails to evoke increases in [Ca^2+ ]i; also recorded: do not cause the mobilization of intracellular Ca^2+	rapid, dose-dependent decrease in the plasma levels of PTH; also recorded: decreases in the levels of serum PTH
